# Key:
# [1] = test system: mouse spleen cells; experiment: Cytotoxicity, Cell Titer-Glo cell viability; assay type: cell-based; conditions: mouse spleen cells vs LXR
# Method: (§1) Spleen cells of a mouse were used in measurement of cytotoxicity in […] cells. The spleen cells of the mouse were prepared as follows. The spleen from a 5˜6-week age mouse was finely minced, and only floating spleen cells were filtered through a net having a pore size of 100 μm. Erythrocytes mixed with the spleen cells were lysed by using erythrocyte lysis buffer, and then removed by centrifugation, precipitation and washing of the cells. The prepared spleen cells were seeded in 96-well plates at a concentration of 5×10^5 cells/well. Here, the spleen cells were treated with the compound of Formula 1 for measurement of toxicity according to the concentrations. The next day, the cells cultured for 16-18 hours were treated with Cell Titer-Glo Luminescent Cell Viability Assay (Promega), and after 10 minutes, cell viability was measured using the luminometer.
# [2] = Cytotoxicity, Cell Titer-Glo cell viability; assay type: cell-based, mouse; conditions: primary mouse spleen cells; mouse spleen cells, 16-18 hours
# Method: as §1
# [3] = test system: C3H/10T1/2 cells; experiment: Adipocyte differentiation inhibitory ability (Oil Red O staining); assay type: cell-based, mouse
# Method: C3H/10T1/2 cells, which are mouse mesenchymal progenitor cells purchased from ATCC, were diluted in DMEM (Dulbecco's Modified Eagle Medium) medium containing 5.958 g/L HEPES, 3.7 g/L sodium bicarbonate and 10% FBS (fetal bovine serum), and cultured in 24-well culture plates at a density of 4×10^4 cells/well, in the presence of 5% CO2 at 37° C. for 2 days. When the cultured cells were grown to 90˜100% confluency in the culture plates, the cells were cultured in DMEM medium containing 10% FBS, to which 5μ/ml insulin, 1 μM dexamethason, and 5 μM troglitazone were added, in the presence of 5% CO2 at 37° C. for 8 days, to induce differentiation into adipocyte. The medium was exchanged every other day during differentiation. The C3H/10T1/2 cell line, in which differentiation into the adipocyte was induced, was fixed with 3.7% formaldehyde at room temperature for 30 minutes. An oil Red O solution dissolved in isopropanol at a concentration of 0.5% was diluted in distilled water at a ratio of 6:4, filtered through a 0.2 μm filter, and poured to the fixed cell line, which was stained for 1 hour. In order to observe only the cells differentiated into the adiopocyte, the dye solution was removed and the cells were washed with distilled water two times.
# 116V specimen extracted from sponge was dissolved in DMSO solvent, and allowed to treat C3H/10T1/2 cell lines, which are mouse mesenchymal progenitor cells, at concentrations of 1, 2.5, 5, 10, and 20 μg/ml. […] Then, after specimens of the compound 1 (1163), the compound 2 (1162), the compound 3 (1161), and the compound 4 (1164), which were purely separated from the 116V and 116VI species were obtained, the same experiment was performed. […] Remarkable cytotoxicity was not observed in each of the specimens during differentiation of adipocytes (FIG. 8).
smiles,measurement,setting,value
CC(C)=CCC/C(C)=C/[C@H]1CC(C)=C[C@@]2(C=C(CO)[C@@H]3CC(=O)C(C)=C[C@@H]3O2)O1 [Compound 1],cytotoxicity IC50 compared with antagonistic concentration against LXR,[1],≥ 1000 times
same,IC50,[2],63 µM
same,adipocyte differentiation inhibitory ability at low concentration,"[3]; C3H/10T1/2, 1 μg/ml",remarkable adipocyte differentiation inhibitory ability
same,adipocyte differentiation ability,"[3]; C3H/10T1/2, 10 μg/ml",remarkably decreased

# Source: patent publication US8703813B2, “Compound with spiro chiral carbon backbone, preparation method thereof, and pharmaceutical composition containing the same” (SNU R & DB Foundation, priority 2008, dated 2014)
